US8455523B2, “Compositions and methods for treating hyperlipidemias” (The Research Foundation of State University of New York, priority 2010, dated 2013)

What was measured:
[1] = tested on: hepatic mRNA of ER stress, inflammation and lipid metabolism genes; assay: Hepatic mRNA quantification (qPCR, XBP-1 splicing) in treated mice; format: in vivo; conditions: liver; for Bip, Ire1α, CHOP, PERK and ATF6 mRNA levels: BMS MTPi one week, lovastatin or pioglitazone with MTPi
From the text: FIGS. 6a and 6b. Liver samples from FIG. 16 were used to isolate total mRNA and to quantify expression of different candidate genes. Statistical analyses were as described in FIGS. 16-17.
FIGS. 9a and 9b. C57B/6J mice were fed a western diet for 8 weeks and then treated with MTP inhibitor and other indicated compounds for 8 days as described in FIG. 16. Liver samples were used to isolate mRNA and to quantify mRNA levels with different candidate genes. Stars on MTPi group represent comparison with the control group.
FIG. 16. Age matched wildtype C57/BL6J animals chow fed animals were treated with DMSO (control) or MTP inhibitor (MTPi) for one week. Age matched wildtype C57/BL6J were fed WD for one month and were administered MTPi, Lovastatin, (Lova), Pioglitazone (Pio) or 4-phenylbutyric acid (PBA) every day for one week. All drugs were administered by oral gavage. Animals were sacrificed on day 7 and livers were harvested. mRNA was extracted and subjected to qPCR analysis. * represent comparison DMSO control; # represent comparisons to WD control; @ represent comparisons to WD MTP inhibitor treated animals.
mRNA quantifications and primers used: Total RNA from tissues and cells were isolated using TriZol™ (Invitrogen). The purity and integrity of RNA were assessed by the A260/A280 ratio and 1% agarose gel electrophoresis, respectively. Only the RNAs with ratios more than 1.7 were used for cDNA synthesis. The first strand cDNA was synthesized using Omniscript RT (Qiagen) kit. Briefly, 2 μg of total RNA, 1 μM random primers (Invitrogen), 0.5 mM dNTP solution, and 0.5 U/μl Omniscript Reverse Transcriptase were incubated at 37° C. for 1 h in 20 μl of RT buffer and the reaction was terminated by incubating at 95° C. for 5 minutes. Each reaction of quantitative RT-PCR was carried out in a volume of 20 μl consisting of 5 μl cDNA sample (1:100 dilution of the first strand cDNA sample) and 15 μl of PCR master mix solution containing 1×PCR reaction buffer, 6 mM MgCl2, 200 nM primer pair, 0.025 U/μl HotStar Gold™ DNA polymerase, 200 μM dNTP solution, and 0.3 μl SYBR Green I solution (gPCR™ Core Kit for SYBR Green I, Eurogentec). The PCR was carried out by incubating the reaction mixture first for 10 minute at 95° C. followed by 40 cycles of 15 sec incubations at 95° C. and 1 min at 60° C. in the ABI 7000 SDS PCR machine. The data were analyzed using ΔΔCT method according to manufacturer's instruction and presented as arbitrary units. The primers used in this study were designed with the PrimerExpress 3.0 software (Applied Biosystems, CA) and are presented as Table 1.

MTP = molecular target: T1, MTP (Mus musculus, UniProt O08601); assay: Determination of MTP activity in tissues (liver homogenates of treated mice); format: in vivo; conditions: for MTP activity (liver): C57Bl/6J, MTPi 1 mg/kg/day oral one week, lovastatin 50 or pioglitazone 25 mg/kg/day added to MTPi; for MTP specific activity (liver): WD fed C57Bl/6J, drug alone, one week
T1 construct: small pieces (0.1 g) of liver and ˜1-cm segments of proximal small intestine were homogenized; from tissue; host or cells: mouse liver (C57BL/6J; Reversa mice in some experiments); supernatant of ultracentrifuged homogenate
T1 sequence (O08601 22-894): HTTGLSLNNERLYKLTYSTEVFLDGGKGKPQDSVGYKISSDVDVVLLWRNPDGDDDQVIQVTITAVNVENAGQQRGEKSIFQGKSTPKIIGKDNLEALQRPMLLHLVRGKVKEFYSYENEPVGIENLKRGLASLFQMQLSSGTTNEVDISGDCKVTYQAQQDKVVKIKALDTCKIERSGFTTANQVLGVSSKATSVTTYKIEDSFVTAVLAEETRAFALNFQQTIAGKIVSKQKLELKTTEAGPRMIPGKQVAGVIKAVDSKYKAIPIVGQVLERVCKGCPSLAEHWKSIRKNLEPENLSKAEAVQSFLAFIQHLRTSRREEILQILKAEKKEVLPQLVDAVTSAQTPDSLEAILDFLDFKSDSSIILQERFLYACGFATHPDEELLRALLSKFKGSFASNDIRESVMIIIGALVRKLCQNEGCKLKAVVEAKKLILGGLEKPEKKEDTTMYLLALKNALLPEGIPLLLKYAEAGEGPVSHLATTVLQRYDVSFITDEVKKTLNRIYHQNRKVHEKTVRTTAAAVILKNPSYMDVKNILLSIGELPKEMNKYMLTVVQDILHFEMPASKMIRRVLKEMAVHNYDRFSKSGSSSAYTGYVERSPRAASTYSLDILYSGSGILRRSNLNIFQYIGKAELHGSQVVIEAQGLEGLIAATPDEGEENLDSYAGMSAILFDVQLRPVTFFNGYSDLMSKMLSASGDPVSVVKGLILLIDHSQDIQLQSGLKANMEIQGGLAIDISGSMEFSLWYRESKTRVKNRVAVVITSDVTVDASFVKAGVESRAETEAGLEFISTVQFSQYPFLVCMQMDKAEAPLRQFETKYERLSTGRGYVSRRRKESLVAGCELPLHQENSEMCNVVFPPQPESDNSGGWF
T1 sequence (P09103 21-509 partner limits assumed): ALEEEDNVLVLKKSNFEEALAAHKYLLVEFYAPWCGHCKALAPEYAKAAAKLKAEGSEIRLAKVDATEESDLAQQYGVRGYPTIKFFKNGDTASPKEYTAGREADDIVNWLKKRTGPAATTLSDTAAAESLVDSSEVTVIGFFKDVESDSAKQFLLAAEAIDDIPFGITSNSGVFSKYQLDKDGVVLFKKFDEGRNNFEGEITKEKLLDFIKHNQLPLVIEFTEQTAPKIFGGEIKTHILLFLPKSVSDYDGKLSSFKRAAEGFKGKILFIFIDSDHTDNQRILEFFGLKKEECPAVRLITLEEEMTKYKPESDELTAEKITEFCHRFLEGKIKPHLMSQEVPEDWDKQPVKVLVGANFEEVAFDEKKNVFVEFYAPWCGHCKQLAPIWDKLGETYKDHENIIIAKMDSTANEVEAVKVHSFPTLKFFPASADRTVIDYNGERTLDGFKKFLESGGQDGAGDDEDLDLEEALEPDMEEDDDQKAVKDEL
Method: After extensive washes with ice-cold PBS, small pieces (0.1 g) of liver and ˜1-cm segments of proximal small intestine were homogenized with 1 ml of ice-cold 1 mM Tris-HCl, pH 7.6, 1 mM EGTA, and 1 mM MgCl2 buffer in a glass homogenizer. The homogenates were centrifuged (SW55 Ti rotor, 50,000 rpm, 10° C., 1 h), and supernatants were used for MTP assay as described before (41; 42) using a kit (Chylos, Inc.).

[2] = WD five weeks, treatment in last week, MTPi ± pioglitazone or lovastatin
[3] = WD 8 weeks, CP-346086 1 week ± lovastatin or WY14643

| SMILES | Bip, Ire1α, CHOP, PERK and ATF6 mRNA levels [1] | MTP activity (liver) (MTP) | MTP specific activity (liver) (MTP) | hepatic MTP activity (MTP; [2]) | Ire1α mRNA and spliced form of XBP-1 ([1]; WD 8 weeks, CP-346086 ± lovastatin or WY14643, 8 days) | hepatic MTP activity (MTP; [3]) |
| --- | --- | --- | --- | --- | --- | --- |
| CCc1ccc(CCOc2ccc(CC3SC(=O)NC3=O)cc2)nc1 (racemic) [pioglitazone, (RS)-5-(4-[2-(5-ethylpyridin-2-yl)ethoxy]benzyl)thiazolidine-2,4-dione] | significantly lower | not further affected | no effect | unaffected | – | – |
| Cc1cccc(Nc2cc(Cl)nc(SCC(=O)O)n2)c1C [WY14643] | – | – | – | – | no effect | no further effect |
| CC[C@H](C)C(=O)O[C@H]1C[C@@H](C)C=C2C=C[C@H](C)[C@H](CC[C@@H]3C[C@@H](O)CC(=O)O3)[C@H]21 [lovastatin] | significantly lower | not further affected | no effect | unaffected | – | no further effect |
